Experiment: Ferric reducing ability of plasma (FRAP)
Settings: 10 mg/mL antrocin
Description: The following methodology describes the FRAP assay: Add 10 µL of sample to a 96-well plate. For each sample, a parallel sample was prepared as a sample background control. Add 4 µL of FRAP Positive Control to each well and make up to 10 µL with FRAP Assay Buffer. For standard curve preparation, add 0, 2, 4, 6, 8, and 10 µL of a 2 mM ferrous standard solution to the wells of a 96-well plate to generate 0, 4, 8, 12, 16, and 20 nmol/well of ferrous iron, respectively. Adjust the volume to 10 µL/well with FRAP Assay Buffer. Mix sufficient reagents for the number of tests to be performed, including: Add 190 µL of Reaction Mix to the wells of the standard curve, positive control, and test samples. Add 190 µL Background Control Mix to the sample background control wells and mix well. After 60 min of reaction at 37 °C, measure the absorbance at 594 nm. Subtract 0 nmol standard readings from all standard curve readings to draw a ferrous standard curve. If the sample background control is significant, subtract the background control reading from its paired sample reading. Apply the sample OD value to the ferrous standard curve to obtain the reduced ferrous ion B nmol generated during the reaction.
Use the following calculation to determine the mM ferrous equivalence of the sample.
Sample FRAP or mM ferrous equivalents = B × D/V = nmol/µL(2) […]

Q: Which “Ferric Reducing Ability of Plasma (mM Ferrous Equivalent)” value does the source give for C=C1CC[C@H]2C(C)(C)CCC[C@@]23C(=O)OC[C@@H]13 [Antrocin, (-)-Antrocin] here?
A: 0.218 ± 0.004 mM Ferrous Equivalent

Source: paper PMC10301922, “Anti-Oxidant, Anti-Mutagenic Activity and Safety Evaluation of Antrocin” (Toxics, 2023)
